One compound from patent publication EP1935984A1 (priority 2006, dated 2008) can be followed below.

For one assay, the system named is wild type B.subtilis PB2. Conditions: concentrations of 30mM and 40mM KSorbate.
Assay [1] deals with Bacillus subtilis wild-type strain PB2. Put plainly: microbe, parasite or virus in culture. The protocol:
(§1) To get a better understanding of the global response of Bacillus subtilis enduring sorbic acid stress, DNA microarray analysis was performed. We studied changes in gene expression after 10, 20, 30, 40 and 50 min of exposure to potassium sorbate in comparison to an untreated control. […] Changes in gene expression were studied using spotted oligo-arrays. The microarray consisted of 4100 gene specific 65-mer oligonucleotides, representing 4,100 of the 4,106 possible ORFs in B. subtilis (as reported for the B. subtilis genome at http://genolist.pasteur.fr/SubtiList/), spotted in duplo onto glass slides. Total RNA, isolated from the sorbate stressed and control cultures of each time-point, was labelled with the fluorescent dyes Cy5-dUTP and Cy3-dUTP respectively and hybridized onto the same slide. Biologically independent experiments were performed in duplo. […] Since the variation in differential expression measurements depends on the intensity (smaller variation at higher- and larger variation at lower fluorescence intensity levels), we applied an intensity-dependent method to identify differentially expressed genes (Yang et al., (2002)a, Genome Biol., 3: 0062). […] According to the KEGG (Kyoto Encyclopedia of Genes and Genomes, Kaneshisa M, et al (2006), Nucl. Acid Res., 34:354-357) database, this enzyme may also be involved in the degradation and biosynthesis of various metabolites, like arginine, proline, tyrosine, tryptophan and pyrine. […] YhcA is a possible multi-drug efflux pump and comprises of thirteen putative trans-membrane domains. YhcA is both a member of the drug resistance transporter EmrB/QacA subfamily and the major facilitator superfamily. […] We followed the growth by measuring the increase in OD600 and calculated growth inhibition percentages (Table 1). […] Table 1. Susceptibility of a selected mutant strain to sorbic acid stress.
(§2) All Bacillus subtilis strains used in this study are derivatives of the laboratory wild-type strain PB2 (kindly provided by C.W. Price) and are listed in Table 4. Mutant strains ATB002 (ureC), ATB007 (sigL) and ATB008 (sigM) were obtained by transformation of strain PB2 with chromosomal DNA of strains SF168U (Cruz-Ramos H., et al., (1997) J. Bacteriol., 179:3371-3373), QB5505 (Debarbouille M., et al., (1991), Proc. Natl. Acad. Sci., 181: 2059-2066) and AM1447 (Thackray PD and Moir A, (2003), J. Bacteriol., 185: 3491-3498), respectively. To obtain mutant strains ATB001 (fabHB), ATB003 (ycsF), ATB004 (yhcA), ATB005 (yhcB) and ATB006 (yxkJ), the wild-type strain PB2 was transformed with chromosomal DNA of strains YHFBd, YCSFd, YHCAd, YHCBd and YXKJd, respectively, which were all received from the Japanese Consortium for Functional Analysis of the B. subtilis Genome (JAFAN, http://bacillus.genome.ad.jp/). Transformants were selected on LB (Luria-Bertani) agar plates containing appropriate antibiotics, after overnight incubation at 37°C. Depending on the strain, the used antibiotics were chloramphenicol (6 µg/ml), erythromycin (0.5 µg/ml), spectinomycin (100 µg/ml) or kanamycin (10 µg/ml). Isolation of chromosomal DNA was performed according to Ward JB. (Ward JB et al, (1973), J. Bacteriol., 116: 719-726) and transformations were carried out as described by Kunst et al (Kunst F. et al, (1995) J. Bacteriol., 177: 2403-2407).

In assay [2] the test system is mutant strain ATB004 (yhcA). Put plainly: microbe, parasite or virus in culture. Conditions: Bacillus subtilis, pH 6.4, read-out: GI% (growth inhibition). The protocol:
as §1, §2

Setting [3] is: pH 6.4, read-out: GI% (growth inhibition).

Procedure for wild type B.subtilis PB2: On MB#1 first a test screen was performed on 15mM KSorbate.
The mutants and the wild type PB2 as a control were grown over night in liquid LB-media, pH6.4, 80mM MOPS and 100µg/ml spectinomycin (for the mutants only) at 37°C and 250rpm. The cultures were diluted to an OD600 of 0.2-0.25, grown to OD600=0.5 and again diluted to an OD600=0.020-0.025. At log-phase (OD600=0.2) a 200µl sample was taken, 10°fold to 10^-6fold diluted and ~5µl plated on the same LB-plates, pH6.4, 80mM MOPS containing 0mM, 15mM, 30mM and 40mM KSorbate. After 24h of incubation at 37°C pictures of the plates were taken.

`C/C=C/C=C/C(=O)[O-].[K+]` [Potassium sorbate, potassium sorbate]: the “growth of the wild type on sorbate plates” value in the assay on wild type B.subtilis PB2 is recorded as “reduce the growth of the wild type”. For the same compound, in assay [1] (setting [3]), the inhibition at 3000 µM came out at 26.1%, the inhibition at 6000 µM turned out to be 40.7%, the inhibition at 15000 µM was 63.6% and the inhibition at 30000 µM came to 73.2%. The inhibition of growth at 3000 µM in assay [1] (read-out: reduction in the growth rate) is 26%. In addition, in assay [2], the inhibition at 3000 µM turned out to be 45.1%, the inhibition at 6000 µM worked out at 50%, the inhibition at 15000 µM came out at 72% and the inhibition at 30000 µM was 79.3%.

For orientation: inhibition means the relative decrease from the control value, in per cent.
